The values that follow come from patent US9265253B2, “Use of macrocyclic picolinamides as fungicides” (DOW AGROSCIENCES LLC, priority 2013, dated 2016).

Read-outs that look alike come from different tables or passages of the source.

Test [1] concerns Mycosphaerella graminicola; Anamorph: Septoria tritici. The test can be described thus: Leaf Blotch of Wheat (SEPTTR) disease control. It is filed as in vivo. The note with it: Zymoseptoria tritici. How it is done:
(§1) Technical grades of materials were dissolved in acetone, which were then mixed with nine volumes of water containing 110 ppm Triton X-100. The fungicide solutions were applied onto wheat seedlings using an automated booth sprayer to run-off. All sprayed plants were allowed to air dry prior to further handling. All fungicides were evaluated using the aforementioned method for their activity vs. all target diseases. Wheat leaf blotch and brown rust activity were also evaluated using track spray applications, in which case the fungicides were formulated as EC formulations, containing 0.1% Trycol 5941 in the spray solutions. Wheat plants (variety Yuma) were grown from seed in a greenhouse in 50% mineral soil/50% soil-less Metro mix until the first leaf was fully emerged, with 7-10 seedlings per pot. These plants were inoculated with an aqueous spore suspension of Septoria tritici either prior to or after fungicide treatments. After inoculation the plants were kept in 100% relative humidity (one day in a dark dew chamber followed by two to three days in a lighted dew chamber at 20° C.) to permit spores to germinate and infect the leaf. The plants were then transferred to a greenhouse set at 20° C. for disease to develop. When disease symptoms were fully expressed on the 1st leaves of untreated plants, infection levels were assessed on a scale of 0 to 100 percent disease severity. Percent disease control was calculated using the ratio of disease severity on treated plants relative to untreated plants.

Test [2] concerns Puccinia triticina; Synonym: Puccinia recondite f. Sp. Tritici. The test is described as follows: Wheat Brown Rust (PUCCRT) disease control. Conditions: Puccinia triticina, topical. It is filed as in vivo. Here is the method:
as §1, with “plants. Wheat plants (variety Yuma) were grown from seed in a greenhouse in 50% mineral soil/50% soil-less Metro mix until the first leaf was fully emerged, with 7-10 seedlings per pot. These plants were inoculated with an aqueous spore suspension of Puccinia triticina either prior to or after fungicide treatments. After inoculation the plants were kept in a dark dew room at 22° C. with 100% relative humidity overnight to permit spores to germinate and infect the leaf. The plants were then transferred to a greenhouse set at 24° C. for disease to develop. Fungicide formulation, application and disease assessment followed the procedures as described in the Example A.” for “plants.”

The mark [3] stands for this setting: 24 h, 1 Day Protectant, rate 100 ppm, read-out: SEPTTR 1 DP disease control.
Setting [4] is: 24 h, 1 Day Protectant, rate 121.5 g/H, read-out: SEPTTR 1 DP disease control.
Setting [5] is: 72 h, 3 Day Curative, rate 100 ppm, read-out: SEPTTR 3 DC disease control.
Setting [6] is: 72 h, 3 Day Curative, rate 121.5 g/H, read-out: SEPTTR 3 DC disease control.
The mark [7] stands for this setting: 24 h, 1 Day Protectant, rate 100 ppm, read-out: PUCCRT 1 DP disease control.
Setting [8] is: 24 h, 1 Day Protectant, rate 121.5 g/H, read-out: PUCCRT 1 DP disease control.
Where [9] appears, read: 72 h, 3 Day Curative, rate 100 ppm, read-out: PUCCRT 3 DC disease control.
The mark [10] stands for this setting: 72 h, 3 Day Curative, rate 121.5 g/H, read-out: PUCCRT 3 DC disease control.

Consider `COCCC(=O)Oc1c(OC)ccnc1C(=O)N[C@H]1CCC[C@H](Cc2ccc(OC)cc2)[C@@H](OCC2CC2)[C@H](C)OC1=O` [Compound F195, 2-(((3S,7R,8R,9S)-8-(cyclopropylmethoxy)-7-(4-methoxybenzyl)-9-methyl-2-oxooxonan-3-yl)carbamoyl)-4-methoxypyridin-3-yl 3-methoxypropanoate], for which the pest or weed control at 100 ppm in test [1] (24 h, Wheat Leaf Blotch, 1 Day Protectant, rate 100 ppm (high volume application), read-out: Disease control SEPTTR 1 DP) is 80 to 100%; in test [1] (72 h, Wheat Leaf Blotch, 3 Day Curative, rate 100 ppm (high volume application), read-out: Disease control SEPTTR 3 DC) it was 80 to 100%; in test [2] (24 h, Wheat Brown Rust, 1 Day Protectant, rate 100 ppm (high volume application), read-out: Disease control PUCCRT 1 DP), 80 to 100%; in test [2] (72 h, Wheat Brown Rust, 3 Day Curative, rate 100 ppm (high volume application), read-out: Disease control PUCCRT 3 DC), 80 to 100%. In addition, the pest or weed control at 121.5 g/ha in test [1] (24 h, Wheat Leaf Blotch, 1 Day Protectant, rate 121.5 g/H (low volume application), read-out: Disease control SEPTTR 1 DP) lay within 80 to 100%; in test [1] (72 h, Wheat Leaf Blotch, 3 Day Curative, rate 121.5 g/H (low volume application), read-out: Disease control SEPTTR 3 DC), 80 to 100%; in test [2] (24 h, Wheat Brown Rust, 1 Day Protectant, rate 121.5 g/H (low volume application), read-out: Disease control PUCCRT 1 DP) it was 80 to 100%; in test [2] (72 h, Wheat Brown Rust, 3 Day Curative, rate 121.5 g/H (low volume application), read-out: Disease control PUCCRT 3 DC), 0 to 80%.
Turning to `CC[C@H]1CCC[C@H](NC(=O)c2nccc(OC)c2OCOC(C)=O)C(=O)O[C@@H](C)[C@@H]1OCC(C)C` [Compound F133], the pest or weed control at 100 ppm in test [1] (setting [3]), in test [1] (setting [5]), in test [2] (setting [7]) and in test [2] (setting [9]) was 80 to 100% each time. Besides, the pest or weed control at 121.5 g/ha in test [1] (setting [4]), in test [1] (setting [6]), in test [2] (setting [8]) and in test [2] (setting [10]) was 80 to 100% throughout.
For the molecule `COc1ccnc(C(=O)N[C@H]2CCC[C@H](Cc3ccc(F)cc3)[C@@H](Oc3ccccc3)[C@H](C)OC2=O)c1O` [Compound F11], the pest or weed control at 100 ppm is 80 to 100% in test [1] (setting [3]), 80 to 100% in test [1] (setting [5]), 80 to 100% in test [2] (setting [7]) and 0 to 80% in test [2] (setting [9]).
Regarding `CCOCC(=O)OCOc1c(OC)ccnc1C(=O)N[C@H]1CCC[C@H](CC2CCCC2)[C@@H](OCC2CC2)[C@H](C)OC1=O` [Compound F178], the pest or weed control at 100 ppm in test [1] (setting [3]), in test [1] (setting [5]), in test [2] (setting [7]) and in test [2] (setting [9]) was 80 to 100% each time. In addition, the pest or weed control at 121.5 g/ha in test [1] (setting [4]) is 80 to 100%; in test [1] (setting [6]) it was 80 to 100%; in test [2] (setting [8]), 80 to 100%; in test [2] (setting [10]), 0 to 80%.
For `COc1ccnc(C(=O)N[C@H]2CCC[C@H](C)[C@@H](OCc3ccccc3)[C@H](C)OC2=O)c1O` [Compound F39], the pest or weed control at 100 ppm in test [1] (setting [3]) lay in the range of 80 to 100%; in test [1] (setting [5]), 0 to 80%; in test [2] (setting [7]) it was 80 to 100%; in test [2] (setting [9]), 80 to 100%.
As for `COc1ccnc(C(=O)N[C@H]2CCC[C@H](C)[C@@H](OCc3ccccc3)[C@H](C)OC2=O)c1OC(C)=O` [Compound F77], the pest or weed control at 100 ppm in test [1] (setting [3]), in test [1] (setting [5]), in test [2] (setting [7]) and in test [2] (setting [9]) was 80 to 100% each time. The pest or weed control at 121.5 g/ha in test [1] (setting [4]), in test [1] (setting [6]), in test [2] (setting [8]) and in test [2] (setting [10]) was 80 to 100% in each case.
For `COc1ccnc(C(=O)N[C@H]2CCC[C@H](CCOCC3CC3)[C@@H](OCC3CC3)[C@H](C)OC2=O)c1OCOC(=O)C(C)C` [Compound F156], the pest or weed control at 100 ppm was 0 to 80% in test [1] (setting [3]), 0 to 80% in test [1] (setting [5]), 80 to 100% in test [2] (setting [7]) and 80 to 100% in test [2] (setting [9]). Besides, the pest or weed control at 121.5 g/ha in test [1] (setting [4]) was in the range of 0 to 80%; in test [1] (setting [6]), 0 to 80%; in test [2] (setting [8]), 80 to 100%; in test [2] (setting [10]) it was 80 to 100%.
With `COc1ccnc(C(=O)N[C@H]2CCC[C@H](Cc3ccc(F)cc3)[C@@H](OC(=O)C(C)C)[C@H](C)OC2=O)c1OCOC(C)=O` [Compound F105], the pest or weed control at 100 ppm in test [1] (setting [3]), in test [1] (setting [5]) and in test [2] (setting [9]) was 80 to 100% each time. Besides, the pest or weed control at 121.5 g/ha in test [1] (setting [4]), in test [1] (setting [6]), in test [2] (setting [8]) and in test [2] (setting [10]) was 80 to 100% in each case.
On to `COc1ccnc(C(=O)N[C@H]2CCC[C@H](CCC(C)C)[C@@H](OCC(C)C)[C@H](C)OC2=O)c1OCOC(C)=O` [Compound F90], for which the pest or weed control at 100 ppm in test [1] (setting [3]), in test [1] (setting [5]), in test [2] (setting [7]) and in test [2] (setting [9]) was 80 to 100% each time. Also, the pest or weed control at 121.5 g/ha in test [1] (setting [4]), in test [1] (setting [6]), in test [2] (setting [8]) and in test [2] (setting [10]) was 80 to 100% throughout.
Consider `COc1ccnc(C(=O)N[C@H]2CCC[C@H](Cc3ccccc3)[C@@H](Oc3ccccc3)[C@H](C)OC2=O)c1O` [Compound F20], for which the pest or weed control at 100 ppm was in the range of 80 to 100% in test [1] (setting [3]), 80 to 100% in test [1] (setting [5]), 80 to 100% in test [2] (setting [7]) and 0 to 80% in test [2] (setting [9]).
For the molecule `COc1ccnc(C(=O)N[C@H]2CCC[C@H](CCC(C)C)[C@@H](OC(=O)C3CCCC3)[C@H](C)OC2=O)c1O` [Compound F8], the pest or weed control at 100 ppm in test [1] (setting [3]), in test [1] (setting [5]), in test [2] (setting [7]) and in test [2] (setting [9]) was 80 to 100% each time.
Regarding `COc1ccnc(C(=O)N[C@H]2CCC[C@H](Cc3ccccc3)[C@@H](OCC3CC3)[C@H](C)OC2=O)c1O` [Compound F19], the pest or weed control at 100 ppm in test [1] (setting [3]), in test [1] (setting [5]), in test [2] (setting [7]) and in test [2] (setting [9]) was 80 to 100% throughout.
With `COc1ccc(C[C@H]2CCC[C@H](NC(=O)c3nccc(OC)c3O)C(=O)O[C@@H](C)[C@@H]2OC(=O)C2CCCC2)cc1` [Compound F28], the values for the pest or weed control at 100 ppm in test [1] (setting [3]), in test [1] (setting [5]) and in test [2] (setting [7]) were 80 to 100%, 0 to 80% and 80 to 100%, respectively.
In the case of `COc1ccnc(C(=O)N[C@H]2CCC[C@H](Cc3ccc(C)cc3)[C@@H](OCC3CC3)[C@H](C)OC2=O)c1O` [Compound F42], the pest or weed control at 100 ppm in test [1] (setting [3]), in test [1] (setting [5]), in test [2] (setting [7]) and in test [2] (setting [9]) was 80 to 100% in each case.
As for `CC[C@H]1CCC[C@H](NC(=O)c2nccc(OC)c2O)C(=O)O[C@@H](C)[C@@H]1Oc1ccccc1` [Compound F51], the pest or weed control at 100 ppm in test [1] (setting [3]) lay in the range of 80 to 100%; in test [1] (setting [5]) it was 0 to 80%; in test [2] (setting [7]), 80 to 100%; in test [2] (setting [9]), 0 to 80%.
